Data published in publication PMC6095626, “Screening of the Pathogen Box for inhibitors with dual efficacy against Giardia lamblia and Cryptosporidium parvum” (PLoS Neglected Tropical Diseases, 2018).

Experiments:
[1] = tested on: G. lamblia trophozoites (luciferase expressing, WBC6); test: microbe, parasite or virus in culture; format: cell-based, Giardia lamblia; conditions: initial Pathogen Box screen, single concentration 16 µM, inhibition compared to DMSO wells
Outline: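 Incubation ran 24 h at 37 °C under anaerobic conditions, with compound added in equal volume to trophozoites (WBC6, luciferase-expressing, 250,000 cells/mL). Bioluminescence was the read-out, cross-checked by MOXI Z counts on a duplicate plate; metronidazole served as control (1:2 dilutions from 40 μM).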

[2] = tested on: C. parvum (UGA1 Nluc expressing strain in HCT-8 cells); test: microbe, parasite or virus in culture; format: cell-based, Cryptosporidium parvum; conditions: initial Pathogen Box screen, single concentration 10 µM, inhibition compared to DMSO wells
Outline: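 Parasite growth quantified by NanoLuc luminescence from lysed infected HCT-8 cells, with EC50 fitted from dose curves. Compounds, single-dose 10 μM or serially diluted, were added to confluent 48 h monolayers before infection with bleached UGA1 Nluc oocysts.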

| SMILES | Giardia (16 uM) Mean % inhibition [1] | Crypto (10 uM) Mean % inhibition [2] |
| --- | --- | --- |
| COc1ccc(OC(C)C(=O)Nc2ccc(Cl)cc2C)cc1 (stereo not shown) [MMV202458] | 11% | X* (Mean or standard deviation are negative but not significantly different from the control to be a growth promoter) |
| CCC(=O)Nc1ccccc1C(=O)Nc1ccccn1 [MMV202553] | 35% | 20% |
| COc1cccc(NC(=O)c2c(NC(=O)c3cccnc3)sc3c2CCC3)c1 [MMV228911] | 37% | 39% |
| COc1cccc(-n2nnnc2S(C)(=O)=O)c1 [MMV272144] | X* (Mean or standard deviation are negative but not significantly different from the control to be a growth promoter) | X* (Mean or standard deviation are negative but not significantly different from the control to be a growth promoter) |
| COc1cccc(-c2cc3c(Nc4cccnc4)nccc3[nH]2)c1 [MMV392832] | 50% | 68% |
| CN1CCN(c2nccc3[nH]c(-c4cccc(F)c4)cc23)CC1 [MMV393144] | 77% | 50% |
| Cc1cc(=O)[nH]c(-n2nc(C)cc2C)n1 [MMV393995] | X* (Mean or standard deviation are negative but not significantly different from the control to be a growth promoter) | 86% |
| CCc1nc2ccc(C(=O)NCc3ccc4c(c3)OCO4)cn2c1N(C)Cc1cccs1 [MMV407539] | 17% | 59% |
| CCOc1ccccc1NC(C)C(=O)Nc1cc(C(F)(F)F)ccc1N1CCOCC1 (stereo not shown) [MMV407834] | 33% | X* (Mean or standard deviation are negative but not significantly different from the control to be a growth promoter) |
| COC(=O)c1c(NC(=O)c2c(F)c(F)c(F)c(F)c2F)sc2c1CCCCC2 [MMV461553] | 33% | 49% |
| CS(=O)(=O)Cc1nc2ccccc2oc1=O [MMV553002] | 12% | 74% |
| c1ccc(-c2cc(N3CCCCC3)c3ccccc3n2)nc1 [MMV560185] | X* (Mean or standard deviation are negative but not significantly different from the control to be a growth promoter) | 47% |
| CCN(CC)S(=O)(=O)c1ccc(C(=O)Nc2cc(C)nn2-c2nc(C)c(C)c(=O)[nH]2)cc1 [MMV595321] | 26% | 92% |
| CCC(Sc1nc2ccccc2o1)C(=O)Nc1nnc(C)s1 (stereo not shown) [MMV611037] | 46% | X* (Mean or standard deviation are negative but not significantly different from the control to be a growth promoter) |
| O=C(NCCN1CCCC1)c1cc(NCCN2CCOCC2)nc2ccc(Cl)cc12 [MMV634140] | 27% | X* (Mean or standard deviation are negative but not significantly different from the control to be a growth promoter) |
| Cc1ccc(C(=O)Nc2ccc(S(=O)(=O)O)c3cc(S(=O)(=O)O)cc(S(=O)(=O)O)c23)cc1NC(=O)c1cccc(NC(=O)Nc2cccc(C(=O)Nc3cc(C(=O)Nc4ccc(S(=O)(=O)O)c5cc(S(=O)(=O)O)cc(S(=O)(=O)O)c45)ccc3C)c2)c1 [MMV637953] | 10% | 36% |
| O=C(Nc1ccc2c(c1)B(O)OC2)c1ccccc1C(F)(F)F [MMV652003] | 14% | 94% |
